From patent US11766467B2, “Methods of treating wounds using cathepsin K inhibitors” (University of Wyoming, priority 2017, dated 2023) come the findings set out here.

Assay [1] has as its system excisional skin wounds in genetically diabetic db/db mice. Kind of assay: excisional skin wound healing in genetically diabetic db/db mice, topical inhibitor. Format: in vivo. As to conditions: treated along the circumference of the wound. The procedure:
FIG. 5 illustrates the effect of a topically delivered pharmacological inhibitor of cathepsin K on wound healing in genetically diabetic mice. Excisional skin wounds were created in genetically diabetic db/db mice and the wounds were treated along the circumference of the wounds with cathepsin K inhibitor II or vehicle. Wound healing was evaluated by measuring the wound closure rate and histomorphometric analysis. […] In contrast, wounds in the vehicle treated group remain unhealed during this time period. Heterozygous (db/db^+/−) mice were used as controls in these studies.

Assay [2] has as its system full-thickness wounds in diabetic pigs. Kind of assay: porcine diabetic (streptozotocin) wound healing model, full-thickness wounds, intradermal injections. In kind it is in vivo. To be noted: for wound closure: both the higher (300 ng/mm^2) and lower (30 ng/mm^2) doses; for wound closure / wound healing (in words): diabetic pigs. The procedure:
Odanacatib is a potent and selective inhibitor of cathepsin K and can be administered to promote wound healing in diabetic pigs. Pigs (3-4 months old) were rendered diabetic with intravenous injection of streptozotocin (75 mg/Kg). Four weeks following streptozotocin injections 6-10 full-thickness (one-inch square, ˜[…] thickness) wounds were created in two columns on each side of the dorsal thoracolumbar midline. […] Wounds were photographed prior to treatment and analyzed for wound closure rates.
Data are expressed as mean±SEM (n=8 for vehicle and 6 each for odanacatib treatment). […] Because some values are missing as we had euthanized one pig from each group on day 14 for molecular analysis, the data were analyzed by fitting a mixed model, rather than by repeated measures ANOVA. […]

Assay [3] concerns cultured human fibroblasts. The experiment in a line: in vitro monolayer wound-healing assay (cell migration under high glucose). As to conditions: high glucose 25 mM, 100 ng/ml inhibitor, 5 μg/ml hydroxyurea, 72 h after wounding. Format: cell-based. How it is done: Referring now to FIGS. 1A-1B, the in vitro monolayer wound-healing assay mimics cell migration during wound healing. An in vitro monolayer wound-healing assay in cultured human fibroblasts was used to test whether pharmacological inhibition of cathepsin K affected cell migration under high-glucose (25 mM) conditions. Mannitol was included to control for osmotic pressure and hydroxyurea to eliminate the potential effects of cell proliferation.
Referring again to FIGS. 1A-1B, inhibition of cathepsin reverses the inhibitory effect of high glucose (HG) on cell migration in a monolayer wound-healing assay. Confluent human fibroblasts were serum starved and subjected to a media containing low (5 mM, LG) or high (25 mM, HG) glucose. The cell monolayer was wounded with a linear scratch using a sterile pipette tip and treated with 100 ng/ml of cathepsin K inhibitor-II in the presence of 5 μg/ml hydroxyurea. At 0 time (upper left panel) and 72 h (lower left panel) after wounding, the cells were photographed using an inverted microscope equipped with a digital camera. Scale bar=600 μm. FIG. 1A. Representative phase-contrast images for each treatment group. FIG. 1B. Bar graph represents the percentage wound closure 72 h after wounding as measured using the NIH Image J software and represented as mean±SEM, n=6, *p<0.01 compared to LG; **p<0.05 compared to LG.

Take `CC(C)C[C@H](NC(=O)OCc1ccccc1)C(=O)NNC(=O)NNC(=O)[C@H](CC(C)C)NC(=O)[C@H](Cc1ccccc1)NC(=O)OC(C)(C)C` [CatKI-II, 1-(N-Benzyloxycarbonyl-leucyl)-5-(N-Boc-phenylalanyl-leucyl) carbohydrazide]: the wound resolution entry in assay [1] (day 12) was “significant resolution of wound”; in assay [1] (day 15), “almost complete resolution”. Further, the “Tukey's multiple comparisons test, Summary” value is “ns” in assay [2] (Table 1, D 3, 30 vs. 300 ng/mm^2); “ns” in assay [2] (Table 1, D 3, Vehicle vs. 300 ng/mm^2); “ns” in assay [2] (Table 1, D 7, 30 vs. 300 ng/mm^2); “ns” in assay [2] (Table 1, D 7, Vehicle vs. 300 ng/mm^2); “ns” in assay [2] (Table 1, D 7, Vehicle vs. 30 μg/mm^2); “ns” in assay [2] (Table 1, D 14, Vehicle vs. 300 ng/mm^2). Moreover, the “Tukey's multiple comparisons test, Summary” value in assay [2] (Table 1, D 21, Vehicle vs. 300 ng/mm^2) is listed as “ns”; in assay [2] (Table 2, D 3, 30 vs. 300 ng/mm^2), “ns”; in assay [2] (Table 2, D 3, Vehicle vs. 300 ng/mm^2), “ns”; in assay [2] (Table 2, D 7, 30 vs. 300 ng/mm^2), “ns”; in assay [2] (Table 2, D 7, Vehicle vs. 300 ng/mm^2), “ns”; in assay [2] (Table 2, D 7, Vehicle vs. 30 μg/mm^2) it was “ns”. Further, the “Tukey's multiple comparisons test, Summary” value in assay [2] (Table 2, D 14, Vehicle vs. 300 ng/mm^2) is “ns”; in assay [2] (Table 2, D 21, Vehicle vs. 300 ng/mm^2), “ns”. Also, the wound closure in assay [2] (day 21 post-wounding) was approximately 93%. For the same molecule, the “wound closure / wound healing (in words)” value in assay [2] was “facilitate wound closure”; in assay [2] (listed as Cathepsin K inhibitor II) it was “promotes wound healing”. For the same molecule, in assay [2] (lower dose 30 ng/mm^2/wound, day 21 post-wounding), the “wound area: improvement in wound healing” value was “statistically significant improvement in wound healing compared to both vehicle and the higher dose”. Also, the “fibroblast migration / monolayer wound closure” value in assay [3] is listed as “increased migration beyond that observed in the cells treated with a low-glucose media”.

Take `CC(C)(F)C[C@H](N[C@@H](c1ccc(-c2ccc(S(C)(=O)=O)cc2)cc1)C(F)(F)F)C(=O)NC1(C#N)CC1` [odanacatib]: the wound closure in assay [2] (day 21 post-wounding) is listed as approximately 93%.
